Results: US20220389061A1, “IMMUNOMODULATORS” (priority 2019, published 2022)
Starred links: 1 amine or outer side, 2 acyl side, 3 side chain; linkers in the order of their positions; H or OH if unused. Positions of bridges follow the written chain, without caps; N, C: chain ends. Non-standard residues stand in square brackets, D forms with d. Residues, ends and D or L forms follow the SMILES beside them. Groups on a side chain read outwards from the residue. *: point of attachment. Trp(1-CH2COOH) = N[C@@H](Cc1cn(CC(=O)O)c2ccccc12)C(=O)O; X24 = COc1cc(NC(=S)*)ccc1-n1cnc(C)n1; X68 = CC1(C)CCC(C)(C)c2cc(N*)ccc21; Hyp = O=C(O)[C@@H]1C[C@@H](O)CN1; X14 = Cc1c[nH]c2c(NC(=S)*)cccc12; X56 = COc1cc([N+](=O)[O-])ccc1N*; X3 = S=C(Nc1ccc(Oc2ccccc2)cc1)*; X84 = COc1cc(NC(=S)*)cc(OC)c1OC; X28 = Cc1ccc(Cl)c(NC(=S)*)c1Cl; X42 = S=C(Nc1ccc2nccnc2c1Br)*; X55 = COc1cc(NC(=S)*)cc(OC)c1; NMeNle = CCCC[C@H](NC)C(=O)O; X4 = S=C(Nc1ccc2c(c1)OCCO2)*; NMeA = CN[C@@H](C)C(=O)O; Dab = NCC[C@H](N)C(=O)O; Dap = NC[C@H](N)C(=O)O; CO = O=C([*:1])[*:2]

target: T1, PD-1/PD-L1 (Homo sapiens, UniProt Q9NZQ7); assay: PD-1/PD-L1 Homogenous Time-Resolved Fluorescence (HTRF) binding assay; conditions: PD-L1-His 10 nM pre-incubated with inhibitor, PD-1-Ig 20 nM; read-out: HTRF IC50
T1 construct: TVMV protease site linker (C); made in house; host or cells: HEK293T cells
T1 sequence (Q9NZQ7 18-239): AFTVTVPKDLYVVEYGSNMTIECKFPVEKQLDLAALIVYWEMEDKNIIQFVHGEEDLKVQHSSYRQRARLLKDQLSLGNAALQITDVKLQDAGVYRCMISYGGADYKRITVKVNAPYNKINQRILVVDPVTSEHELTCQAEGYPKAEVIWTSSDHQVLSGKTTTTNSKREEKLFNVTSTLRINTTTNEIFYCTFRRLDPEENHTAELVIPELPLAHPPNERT
Excerpt: The ability of the compounds of formula (I) to bind to PD-L1 was investigated using a PD-1/PD-L1 Homogenous Time-Resolved Fluorescence (HTRF) binding assay.
The interaction of PD-1 and PD-L1 can be assessed using soluble, purified preparations of the extracellular domains of the two proteins. The PD-1 and PD-L1 protein extracellular domains were expressed as fusion proteins with detection tags, for PD-1, the tag was the Fc portion of Immunoglobulin (PD-1-Ig) and for PD-L1 it was the 6 histidine motif (PD-L1-His). All binding studies were performed in an HTRF assay buffer consisting of dPBS supplemented with 0.1% […] bovine serum albumin and 0.05% (v/v) Tween-20. For the h/PD-L1-His binding assay, inhibitors were pre-incubated with PD-L1-His (10 nM final) for 15 m in 4 μl of assay buffer, followed by addition of PD-1-Ig (20 nM final) in 1 μl of assay buffer and further incubation for 15 m. HTRF detection was achieved using europium crypate-labeled anti-Ig (1 nM final) and allophycocyanin (APC) labeled anti-His (20 nM final). Antibodies were diluted in HTRF detection buffer and 5 μl was dispensed on top of the binding reaction. […] Additional binding assays were established between the human proteins PD-1-Ig/PD-L2-His (20 & 5 nM, respectively) and CD80-His/PD-L1-Ig (100 & 10 nM, respectively). […]

| Structure (SMILES) | IC50 [nM] |
| --- | --- |
| CCCC[C@H]1C(=O)N(C)[C@@H](CCCC)C(=O)N[C@@H](CC(C)C)C(=O)N[C@H](C(=O)NCC(N)=O)CSCC(=O)N[C@@H](Cc2ccc(O)cc2)C(=O)N(C)[C@@H](C)C(=O)N[C@@H](CC(N)=O)C(=O)N2CCC[C@H]2C(=O)N[C@@H](CNC(=S)Nc2ccc3nccnc3c2Br)C(=O)N[C@@H](CC(C)C)C(=O)N2C[C@H](O)C[C@H]2C(=O)N[C@@H](Cc2c[nH]c3ccccc23)C(=O)N[C@@H](CCN)C(=O)N[C@@H](Cc2cn(CC(=O)O)c3ccccc23)C(=O)N1C [Example 3047] ({CH2CO}-Y[NMeA]NP[Dap](X42)L[Hyp]W[Dab][Trp(1-CH2COOH)][NMeNle][NMeNle]LCG-NH2; thioether N-14) | 5.8 |
| CCCC[C@H]1C(=O)N(C)[C@@H](CCCC)C(=O)N[C@@H](CC(C)C)C(=O)N[C@H](C(=O)NCC(N)=O)CSCC(=O)N[C@@H](Cc2ccc(O)cc2)C(=O)N(C)[C@@H](C)C(=O)N[C@@H](CC(N)=O)C(=O)N2CCC[C@H]2C(=O)N[C@@H](CNC(=S)Nc2ccc(-n3cnc(C)n3)c(OC)c2)C(=O)N[C@@H](CC(C)C)C(=O)N2C[C@H](O)C[C@H]2C(=O)N[C@@H](Cc2c[nH]c3ccccc23)C(=O)N[C@@H](CCN)C(=O)N[C@@H](Cc2cn(CC(=O)O)c3ccccc23)C(=O)N1C [Example 1054] ({CH2CO}-Y[NMeA]NP[Dap](X24)L[Hyp]W[Dab][Trp(1-CH2COOH)][NMeNle][NMeNle]LCG-NH2; thioether N-14) | 3.5 |
| CCCC[C@H]1C(=O)N(C)[C@@H](CCCC)C(=O)N[C@@H](CC(C)C)C(=O)N[C@H](C(=O)NCC(N)=O)CSCC(=O)N[C@@H](Cc2ccc(O)cc2)C(=O)N(C)[C@@H](C)C(=O)N[C@@H](CC(N)=O)C(=O)N2CCC[C@H]2C(=O)N[C@@H](CNC(=O)Nc2ccc3c(c2)C(C)(C)CCC3(C)C)C(=O)N[C@@H](CC(C)C)C(=O)N2C[C@H](O)C[C@H]2C(=O)N[C@@H](Cc2c[nH]c3ccccc23)C(=O)N[C@@H](CCN)C(=O)N[C@@H](Cc2cn(CC(=O)O)c3ccccc23)C(=O)N1C [Example 3046] ({CH2CO}-Y[NMeA]NP[Dap]([CO-X68])L[Hyp]W[Dab][Trp(1-CH2COOH)][NMeNle][NMeNle]LCG-NH2; thioether N-14) | 3.3 |
| CCCC[C@H]1C(=O)N(C)[C@@H](CCCC)C(=O)N[C@@H](CC(C)C)C(=O)N[C@H](C(=O)NCC(N)=O)CSCC(=O)N[C@@H](Cc2ccc(O)cc2)C(=O)N(C)[C@@H](C)C(=O)N[C@@H](CC(N)=O)C(=O)N2CCC[C@H]2C(=O)N[C@@H](CNC(=S)Nc2ccc3c(c2)OCCO3)C(=O)N[C@@H](CC(C)C)C(=O)N2C[C@H](O)C[C@H]2C(=O)N[C@@H](Cc2c[nH]c3ccccc23)C(=O)N[C@@H](CCN)C(=O)N[C@@H](Cc2cn(CC(=O)O)c3ccccc23)C(=O)N1C [Example 3073] ({CH2CO}-Y[NMeA]NP[Dap](X4)L[Hyp]W[Dab][Trp(1-CH2COOH)][NMeNle][NMeNle]LCG-NH2; thioether N-14) | 5 |
| CCCC[C@H]1C(=O)N(C)[C@@H](CCCC)C(=O)N[C@@H](CC(C)C)C(=O)N[C@H](C(=O)NCC(N)=O)CSCC(=O)N[C@@H](Cc2ccc(O)cc2)C(=O)N(C)[C@@H](C)C(=O)N[C@@H](CC(N)=O)C(=O)N2CCC[C@H]2C(=O)N[C@@H](CNC(=S)Nc2c(Cl)ccc(C)c2Cl)C(=O)N[C@@H](CC(C)C)C(=O)N2C[C@H](O)C[C@H]2C(=O)N[C@@H](Cc2c[nH]c3ccccc23)C(=O)N[C@@H](CCNC(=S)Nc2c(Cl)ccc(C)c2Cl)C(=O)N[C@@H](Cc2cn(CC(=O)O)c3ccccc23)C(=O)N1C [Example 1113] ({CH2CO}-Y[NMeA]NP[Dap](X28)L[Hyp]W[Dab](X28)[Trp(1-CH2COOH)][NMeNle][NMeNle]LCG-NH2; thioether N-14) | 9.3 |

Continued by falling IC50, values first:

| IC50 [nM] | Structure (SMILES) |
| --- | --- |
| 3.3 | CCCC[C@H]1C(=O)N(C)[C@@H](CCCC)C(=O)N[C@@H](CC(C)C)C(=O)N[C@H](C(=O)NCC(N)=O)CSCC(=O)N[C@@H](Cc2ccc(O)cc2)C(=O)N(C)[C@@H](C)C(=O)N[C@@H](CC(N)=O)C(=O)N2CCC[C@H]2C(=O)N[C@@H](CNC(=S)Nc2ccc(Oc3ccccc3)cc2)C(=O)N[C@@H](CC(C)C)C(=O)N2C[C@H](O)C[C@H]2C(=O)N[C@@H](Cc2c[nH]c3ccccc23)C(=O)N[C@@H](CCN)C(=O)N[C@@H](Cc2cn(CC(=O)O)c3ccccc23)C(=O)N1C [Example 1045] ({CH2CO}-Y[NMeA]NP[Dap](X3)L[Hyp]W[Dab][Trp(1-CH2COOH)][NMeNle][NMeNle]LCG-NH2; thioether N-14) |
| 3.1 | CCCC[C@H]1C(=O)N(C)[C@@H](CCCC)C(=O)N[C@@H](CC(C)C)C(=O)N[C@H](C(=O)NCC(N)=O)CSCC(=O)N[C@@H](Cc2ccc(O)cc2)C(=O)N(C)[C@@H](C)C(=O)N[C@@H](CC(N)=O)C(=O)N2CCC[C@H]2C(=O)N[C@@H](CNC(=S)Nc2cc(OC)cc(OC)c2)C(=O)N[C@@H](CC(C)C)C(=O)N2C[C@H](O)C[C@H]2C(=O)N[C@@H](Cc2c[nH]c3ccccc23)C(=O)N[C@@H](CCN)C(=O)N[C@@H](Cc2cn(CC(=O)O)c3ccccc23)C(=O)N1C [Example 1098] ({CH2CO}-Y[NMeA]NP[Dap](X55)L[Hyp]W[Dab][Trp(1-CH2COOH)][NMeNle][NMeNle]LCG-NH2; thioether N-14) |
| 2.9 | CCCC[C@H]1C(=O)N(C)[C@@H](CCCC)C(=O)N[C@@H](CC(C)C)C(=O)N[C@H](C(=O)NCC(N)=O)CSCC(=O)N[C@@H](Cc2ccc(O)cc2)C(=O)N(C)[C@@H](C)C(=O)N[C@@H](CC(N)=O)C(=O)N2CCC[C@H]2C(=O)N[C@@H](CNC(=S)Nc2cccc3c(C)c[nH]c23)C(=O)N[C@@H](CC(C)C)C(=O)N2C[C@H](O)C[C@H]2C(=O)N[C@@H](Cc2c[nH]c3ccccc23)C(=O)N[C@@H](CCNC(=S)Nc2cccc3c(C)c[nH]c23)C(=O)N[C@@H](Cc2cn(CC(=O)O)c3ccccc23)C(=O)N1C [Example 3025] ({CH2CO}-Y[NMeA]NP[Dap](X14)L[Hyp]W[Dab](X14)[Trp(1-CH2COOH)][NMeNle][NMeNle]LCG-NH2; thioether N-14) |
| 2.8 | CCCC[C@H]1C(=O)N(C)[C@@H](CCCC)C(=O)N[C@@H](CC(C)C)C(=O)N[C@H](C(=O)NCC(N)=O)CSCC(=O)N[C@@H](Cc2ccc(O)cc2)C(=O)N(C)[C@@H](C)C(=O)N[C@@H](CC(N)=O)C(=O)N2CCC[C@H]2C(=O)N[C@@H](CNC(=S)Nc2cc(OC)c(OC)c(OC)c2)C(=O)N[C@@H](CC(C)C)C(=O)N2C[C@H](O)C[C@H]2C(=O)N[C@@H](Cc2c[nH]c3ccccc23)C(=O)N[C@@H](CCN)C(=O)N[C@@H](Cc2cn(CC(=O)O)c3ccccc23)C(=O)N1C [Example 1065] ({CH2CO}-Y[NMeA]NP[Dap](X84)L[Hyp]W[Dab][Trp(1-CH2COOH)][NMeNle][NMeNle]LCG-NH2; thioether N-14) |
| 2.4 | CCCC[C@H]1C(=O)N(C)[C@@H](CCCC)C(=O)N[C@@H](CC(C)C)C(=O)N[C@H](C(=O)NCC(N)=O)CSCC(=O)N[C@@H](Cc2ccc(O)cc2)C(=O)N(C)[C@@H](C)C(=O)N[C@@H](CC(N)=O)C(=O)N2CCC[C@H]2C(=O)N[C@@H](CNC(=O)Nc2ccc([N+](=O)[O-])cc2OC)C(=O)N[C@@H](CC(C)C)C(=O)N2C[C@H](O)C[C@H]2C(=O)N[C@@H](Cc2c[nH]c3ccccc23)C(=O)N[C@@H](CCN)C(=O)N[C@@H](Cc2cn(CC(=O)O)c3ccccc23)C(=O)N1C [Example 1108] ({CH2CO}-Y[NMeA]NP[Dap]([CO-X56])L[Hyp]W[Dab][Trp(1-CH2COOH)][NMeNle][NMeNle]LCG-NH2; thioether N-14) |
